In series [1] the test system is Cln3^Δex7-8 mice. Briefly: Corpus callosum volume by MRI. Type of series: in vivo, mouse. Particulars: 12-month-old Cln3^Δex7-8 mice, trehalose; untreated 12.96±0.43 mm^3. The method, then: Mice were transcardially perfused before imaging. The head was removed and then the skin, muscle, ears, nose tip and lower jaw were removed to expose the skull. The head was fixed overnight in 4% paraformaldehyde at 4° C. The head was then transferred to 40 mLs of 0.01% sodium azide in PBS and rocked for 7 days at 4° C. The head was transferred to a solution of 5 mM gadopentetate dimeglumine (Bayer HealthCare Pharmaceuticals Inc., Wayne, N.J.) and 0.01% sodium azide in PBS and rocked for 25-35 days at 4° C. Incubation with gadopentetate dimeglumine improved the signal-to-noise ratio. Before imaging, the head was equilibrated to room temperature for 6-8 h.
A total of 48 scans per mouse were acquired on a 9.4 T Bruker Avance Biospec Spectrometer, 21-cm bore horizontal scanner with 35 mm volume resonator (Bruker BioSpin, Billerica, Mass.) with Paravision 5.0 software (Bruker Biospin, Billerica, Mass.). The three-dimensional DTI scan parameters are as follows: spin echo, b-value=0 and 1,000 s/mm^2, 20 diffusion directions with one non-diffusion weighted image, TR=500 ms, TE=14.8 ms, FOV=1.7×1.2×2.4 cm or 2.0×1.4×3.2 cm, matrix=128×96×96, NEX=1, δ=3 ms, Δ=7 ms. The acquisition time was ˜15 h.
The MRI images were first processed on DTI studio to extrapolate the fractional anisotropy. […]

For another series, the system named is ERK. Briefly: ERK inhibition check. Type of series: cell-based. The method, then:
Brain tissue and cultured cells were collected and lysed in RIPA buffer (50 mM Tris-HCl, ph 7.4, 1% NP40, 0.5% Na-deoxycholate, 0.1% SDS, 150 mM NaCl, 2 mM EDTA and 50 mM NaF) including a cocktail of protease (Roche) and phosphatase (SIGMA) inhibitors. Protein concentrations were measured with the bicinchoninic acid protein assay kit (Pierce, Rockford, Ill.), using bovine serum albumin as standard. Lysates were separated via SDS-polyacrylamide gel electrophoresis (PAGE) and then transferred to nitrocellulose membranes. Blots were incubated in blocking buffer (5%, w/v, dried skimmed milk in Tris-buffered saline, pH 7.4 and 0.2% Tween 20, TBST) followed by overnight incubation with appropriate antibodies diluted in blocking buffer (5% dry milk). Western blot images were acquired by LAS 4000 (GE Healthcare) and quantified using ImageJ. Images have been cropped for presentation.

Series [2] relates to Cln3^Δex7-8 mice. Put plainly: Astrocytosis, GFAP immunohistochemistry. As to conditions: for decrease of GFAP immunoreactivity: 12 months of age. Type of series: in vivo, mouse. The method, then:
(§1) Brains were subsequently removed and postfixed overnight. Before sectioning, the brains were cryoprotected in a solution containing 30% sucrose in Tris-buffered saline (TBS: 50 mM Tris, pH 7.6). Consecutive […] floating coronal sections were collected in 96-well plates. Series of sections were then stained with primary antisera against CD68 or GFAP, followed by either rabbit anti-rat (VectorLab) and swine anti-rabbit (DAKO) secondary antibodies, and immunoreactivity detected with Vectastain ABC (avidin-biotin) kit (Vector) and diaminobenzidine as a chromogen.
(§2) Thirty non-overlapping images were captured, on three consecutive sections, through each region of interest. All RGB images were captured via a live video camera (JVC, 3CCD, KY-F55B), mounted onto a Zeiss Axioplan microscope using a ×40 objective and saved as JPEGs. All parameters including lamp intensity, video camera set-up and calibration were maintained constant throughout image capturing. Images were subsequently analysed using ImageJ analysis software (NIH), using an appropriate threshold that selected the foreground immunoreactivity above background. This threshold was then applied as a constant to all subsequent images analysed per batch of animals and reagent used to determine the specific area of immunoreactivity for each antigen in each region. This analysis was performed blind to genotype. Data were plotted graphically as the mean percentage area of immunoreactivity per field±s.e.m. for each region.

Series [3] relates to Cln3^Δex7-8 mice. Briefly: Storage burden (autofluorescent storage material, confocal thresholding). The format is in vivo, mouse. Particulars: S1BF and VPM/VPL, 7- and 12-month-old Cln3^Δex7-8 mice. The method, then:
To analyse the relative level of the autofluorescent storage material present in each brain region, mouse brain sections spanning the S1BF and VPM/VPL were mounted onto gelatin-chrome-coated slides and cover-slipped with Vectashield (Vector Laboratories, Peterborough, UK). Non-overlapping images from each section were captured at ×63 magnification using a Leica SP5 confocal microscope and a 488 nm excitation laser (Leica Microsystem). Thresholding image analysis was performed to determine the storage burden present in each region. During image capture, all laser parameters and calibrations were kept constant. Semiquantitative thresholding image analysis was carried out using ImageJ (NIH).

The subject of series [4] is Cln3^Δex7-8 mice. Put plainly: Microglial activation, CD68 immunohistochemistry. The format is in vivo, mouse. The method, then:
as §1
as §2, with “Data were plotted graphically as the mean percentage area of immunoreactivity per field±s.e.m. for each region.” left out

For series [5] the following is noted: cited from earlier work.
Another series concerns the target T1, GSK3β (Homo sapiens, UniProt P49841).
T1 construct: endogenous in cells; host or cells: HeLa
Put plainly: GSK3β immunoblot in HeLa cells. Type of series: cell-based. Particulars: trehalose 24 h. An excerpt:
FIG. 16. […] GAPDH was used as a loading control. […] Images have been cropped for presentation.
Background: In western blotting, separated proteins are transferred to a membrane and probed.

A further series deals with TFEB. Briefly: Serum re-stimulation of serum-starved Tsc2-/- cells, TFEB localization. Particulars: preincubation with MK2206. The format is cell-based, mouse. The method, then: FIG. 15. Serum stimulation modulates subcellular localization of TFEB by regulating Akt activity. (a) WT and Tsc2^−/− cells were serum starved (16 h), treated with MK2206 in the last two hr of starvation where indicated, and stimulated with dialyzed serum for the last 30 min when indicated. Cell lysates were probed with antibodies as indicated. (b) WT and Tsc2^−/− cells were transiently transfected with TFEB-Flag and treated as in (a) and analyzed by immunofluorescence confocal microscopy. Scale bar is 60 μm.

T1 sequence (P49841 whole entry): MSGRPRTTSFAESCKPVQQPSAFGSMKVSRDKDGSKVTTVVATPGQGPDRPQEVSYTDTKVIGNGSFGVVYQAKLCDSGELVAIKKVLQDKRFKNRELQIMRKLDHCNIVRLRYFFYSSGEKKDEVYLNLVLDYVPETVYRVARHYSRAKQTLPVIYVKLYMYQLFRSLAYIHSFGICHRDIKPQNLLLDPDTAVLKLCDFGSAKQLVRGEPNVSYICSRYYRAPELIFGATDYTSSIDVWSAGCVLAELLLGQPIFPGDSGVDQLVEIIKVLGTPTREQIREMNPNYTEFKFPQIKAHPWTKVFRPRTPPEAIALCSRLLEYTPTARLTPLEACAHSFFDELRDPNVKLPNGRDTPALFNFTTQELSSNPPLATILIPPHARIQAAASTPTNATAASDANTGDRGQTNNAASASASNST

`OC[C@H]1O[C@H](O[C@H]2O[C@H](CO)[C@@H](O)[C@H](O)[C@H]2O)[C@H](O)[C@@H](O)[C@@H]1O` [trehalose, a-D-glucopyranosyl a-D-glucopyranoside] yielded a corpus callosum volume with Cln3^Δex7-8 mice [1] of 15.02±0.33 mm^3. For the same molecule, the ERK inhibition result in the series on ERK was “does not inhibit ERK”. The “progressive neuroinflammation (GFAP and CD68 immunoreactivity)” value in the series on Cln3^Δex7-8 mice [2] (S1BF and VPM/VPL, 7 and 12 months of age) is reported as “mitigated”. Moreover, the “decrease of GFAP immunoreactivity” value is listed as 43% in the series on Cln3^Δex7-8 mice [2] (S1BF region) and 67% with Cln3^Δex7-8 mice [2] (VPM/VPL region). The “punctate autofluorescent storage material” value in the series on Cln3^Δex7-8 mice [3] is “significantly reduced”. Moreover, the “microglial activation (CD68)” value in the series with Cln3^Δex7-8 mice [4] (S1BF region, 7 months of age) was “significantly rescued”. Moreover, the “reduction of microglial activation (CD68)” value in the series on Cln3^Δex7-8 mice [4] (VPM/VPL region, 12 months of age) is 48%. In addition, in series [5] (oral), the “oral amount that may cause diarrhea and bloating” value is recorded as 40-50 grams per day. Besides, in series [5] (orally and intravenously, doses substantially higher than the intended therapeutic dose), the safety and toxicity entry was “found to be safe”. Also, on GSK3β, the GSK3β activity entry is recorded as “no detectable effect”.
For `Cl.NC1(c2ccc(-c3nc4ccn5c(=O)[nH]nc5c4cc3-c3ccccc3)cc2)CCC1` [MK2206, 8-[4-(1-aminocyclobutyl)phenyl]-9-phenyl-1,2,4-triazolo[3,4-f][1,6]naphthyridin-3(2H)-one], the “TFEB nucleus-to-cytosol translocation on serum re-stimulation” value with TFEB is “prevented”.
